These results are taken from patent US20250195513A1, “DEGRADATION OF IRAK4 BY CONJUGATION OF IRAK4 INHIBITORS WITH E3 LIGASE LIGAND AND METHODS OF USE” (BeiGene, Ltd., priority 2022, published 2025).

In assay [1] the target is T1, IRAK4 (Homo sapiens, UniProt Q9NWZ3).
T1 construct: endogenous in cells; host or cells: Karpas299
T1 sequence (Q9NWZ3 1-460): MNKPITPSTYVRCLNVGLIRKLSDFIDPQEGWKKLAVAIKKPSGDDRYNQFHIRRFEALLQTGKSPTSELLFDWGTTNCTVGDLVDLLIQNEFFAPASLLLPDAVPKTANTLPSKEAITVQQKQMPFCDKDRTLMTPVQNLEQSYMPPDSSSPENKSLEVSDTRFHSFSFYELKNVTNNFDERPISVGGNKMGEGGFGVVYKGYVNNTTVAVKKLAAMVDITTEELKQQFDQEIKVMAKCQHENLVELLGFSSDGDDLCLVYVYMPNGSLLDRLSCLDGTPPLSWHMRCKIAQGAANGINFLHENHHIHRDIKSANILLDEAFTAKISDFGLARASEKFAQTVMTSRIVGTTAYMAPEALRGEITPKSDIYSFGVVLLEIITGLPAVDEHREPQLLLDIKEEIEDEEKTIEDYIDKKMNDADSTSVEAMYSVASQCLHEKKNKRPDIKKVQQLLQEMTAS
Description: IRAK4 Degradation Assay with Human Serum (Karpas299, HTRF/TR-FRET). It is filed as cell-based. The following applies: Karpas-299 in human serum, 24 hrs treatment; for DC50: read-out: IRAK4 degradtion with human serum assay DC50; for Dmax: read-out: IRAK4 degradtion with human serum assay Dmax (%). Summed up:
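Karpas299 cells in human AB serum (0.2 million/well) treated with serial compound dilutions for 24 h. After lysis, IRAK4 quantified by HTRF (overnight antibody incubation at room temperature, 665/620 nm read). Degradation percentage fitted to four-parameter curve to give DC50.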
For orientation: In TR-FRET formats the signal depends on donor and acceptor labels being close together.

Assay [2] deals with T1, IRAK4. The assay is described as follows: IRAK4 Degradation Assay (Karpas299, HTRF/TR-FRET). It counts as cell-based. The following applies: Karpas-299 cells, 24 h treatment; for Dmax: read-out: IRAK4 in Karpas-299 (24 h) Dmax (%); for DC50: read-out: IRAK4 in Karpas-299 (24 h) DC50. The essentials: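 Karpas299 cells at 0.2 million per well were exposed to serially diluted compounds for 24 h or 5 h, then lysed. IRAK4 remaining in lysates was quantified by HTRF (665/620 nm) after overnight antibody incubation at room temperature. Percent degradation was fitted to a four-parameter curve to give IC50 (DC50).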

[3] abbreviates: maximum percentage of degradation.

Regarding `COC[C@H]1CN(C2CCN(c3ccc(C4CCC(=O)NC4=O)nc3C)CC2)CCN1[C@H]1CC[C@H](n2cc3cc(NC(=O)c4ccc5cc(C#N)cnn45)c(C(C)(C)O)cc3n2)CC1` (stereo partly drawn) [Example 415, 3-cyano-N-(2-((1R,4r)-4-((2R)-4-(1-(6-(2,6-dioxopiperidin-3-yl)-2-methylpyridin-3-yl)piperidin-4-yl)-2-(methoxymethyl)piperazin-1-yl)cyclohexyl)-6-(2-hydroxypropan-2-yl)-2H-indazol-5-yl)pyrrolo[1,2-b]pyridazine-7-carboxamide], the half-maximal degradation concentration (DC50) on IRAK4 [1] turned out to be 8.6 nM; at IRAK4 [2] it was 1.4 nM. In addition, the maximal degradation (Dmax) at IRAK4 [1] stood at 98%; at IRAK4 [2] (setting [3]) it was 97%.

Regarding `Cc1nc(C2CCC(=O)NC2=O)ccc1N1CCC(N2CCN(C34CCC(n5cc6cc(NC(=O)c7ccc8cc(C#N)cnn78)c(C(C)(C)O)cc6n5)(CC3)CC4)CC2)CC1` (stereo not shown) [Example 416, 3-cyano-N-(2-(4-(4-(1-(6-(2,6-dioxopiperidin-3-yl)-2-methylpyridin-3-yl)piperidin-4-yl)piperazin-1-yl)bicyclo[2.2.2]octan-1-yl)-6-(2-hydroxypropan-2-yl)-2H-indazol-5-yl)pyrrolo[1,2-b]pyridazine-7-carboxamide], the half-maximal degradation concentration (DC50) on IRAK4 [1] amounted to 9.2 nM; on IRAK4 [2], 1.9 nM. Further, the greatest degradation seen (Dmax) stood at 99% on IRAK4 [1] and 98% at IRAK4 [2] (setting [3]).

In the case of `CC(C)(O)c1cc2nn([C@H]3CC[C@H](N4CCN(C5CCN(c6ccc7c(c6)CN(C6CCC(=O)NC6=O)C7=O)CC5)CC4)CC3)cc2cc1NC(=O)c1ccc2cc(C#N)cnn12` (stereo partly shown) [Example 417, 3-cyano-N-(2-((1r,4r)-4-(4-(1-(2-(2,6-dioxopiperidin-3-yl)-1-oxoisoindolin-5-yl)piperidin-4-yl)piperazin-1-yl)cyclohexyl)-6-(2-hydroxypropan-2-yl)-2H-indazol-5-yl)pyrrolo[1,2-b]pyridazine-7-carboxamide], the DC50 on IRAK4 [1] turned out to be 4.5 nM; on IRAK4 [2], 0.9 nM. The greatest degradation seen (Dmax) on IRAK4 [1] and on IRAK4 [2] (setting [3]) was 95% throughout.

For the compound `COC[C@@H]1CN([C@H]2CC[C@H](n3cc4cc(NC(=O)c5ccc6cc(C#N)cnn56)c(C(C)(C)O)cc4n3)CC2)CCN1C1CCN(c2ccc(C3CCC(=O)NC3=O)nc2C)CC1` (stereo partly drawn) [Example 418, 3-cyano-N-(2-((1S,4r)-4-((3S)-4-(1-(6-(2,6-dioxopiperidin-3-yl)-2-methylpyridin-3-yl)piperidin-4-yl)-3-(methoxymethyl)piperazin-1-yl)cyclohexyl)-6-(2-hydroxypropan-2-yl)-2H-indazol-5-yl)pyrrolo[1,2-b]pyridazine-7-carboxamide], the DC50 worked out at 6.1 nM at IRAK4 [1] and 1.8 nM on IRAK4 [2]. Also, the greatest degradation seen (Dmax) was 100% at IRAK4 [1] and 94% at IRAK4 [2] (setting [3]).

As for `Cc1nc(C2CCC(=O)NC2=O)ccc1N1CCC(N2CCN(C34CC(n5cc6cc(NC(=O)c7ccc8cc(C#N)cnn78)c(C(C)(C)O)cc6n5)(C3)C4)CC2)CC1` (stereo not shown) [Example 419, 3-cyano-N-(2-(3-(4-(1-(6-(2,6-dioxopiperidin-3-yl)-2-methylpyridin-3-yl)piperidin-4-yl)piperazin-1-yl)bicyclo[1.1.1]pentan-1-yl)-6-(2-hydroxypropan-2-yl)-2H-indazol-5-yl)pyrrolo[1,2-b]pyridazine-7-carboxamide], the DC50 on IRAK4 [1] amounted to 4 nM; at IRAK4 [2] it was 1.6 nM. Further, the Dmax on IRAK4 [1] and on IRAK4 [2] (setting [3]) was 97% throughout.

For `Cc1nc(C2CCC(=O)NC2=O)ccc1N1CCC(N2CCN(C[C@H]3CC[C@H](n4cc5cc(NC(=O)c6ccc7cc(C#N)cnn67)c(C(C)(C)O)cc5n4)CC3)CC2)CC1` (stereo partly shown) [Example 420, 3-cyano-N-(2-((1r,4r)-4-((4-(1-(6-(2,6-dioxopiperidin-3-yl)-2-methylpyridin-3-yl)piperidin-4-yl)piperazin-1-yl)methyl)cyclohexyl)-6-(2-hydroxypropan-2-yl)-2H-indazol-5-yl)pyrrolo[1,2-b]pyridazine-7-carboxamide], the values for the DC50 at IRAK4 [1] and on IRAK4 [2] were 17 nM and 2.8 nM, respectively. The Dmax on IRAK4 [1] is 96%; on IRAK4 [2] (setting [3]) it was 97%.

As to `CC(C)(O)c1cc2nn([C@H]3CC[C@H](CN4CCN(C5CN(c6cc(F)c([C@H]7CCC(=O)NC7=O)c(F)c6)C5)CC4)CC3)cc2cc1NC(=O)c1ccc2cc(C#N)cnn12` [Example 421, 3-cyano-N-(2-((1r,4r)-4-((4-(1-(4-((R)-2,6-dioxopiperidin-3-yl)-3,5-difluorophenyl)azetidin-3-yl)piperazin-1-yl)methyl)cyclohexyl)-6-(2-hydroxypropan-2-yl)-2H-indazol-5-yl)pyrrolo[1,2-b]pyridazine-7-carboxamide], the DC50 amounted to 15 nM on IRAK4 [1] and 0.8 nM at IRAK4 [2]. The greatest degradation seen (Dmax) at IRAK4 [1] worked out at 97%; at IRAK4 [2] (setting [3]), 95%.

`COC[C@H]1CN([C@H]2CC[C@H](n3cc4cc(NC(=O)c5ccc6cc(C#N)cnn56)c(C(C)(C)O)cc4n3)CC2)CCN1C1CCN(c2ccc(C3CCC(=O)NC3=O)nc2C)CC1` (stereo partly drawn) [Example 422, 3-cyano-N-(2-((1R,4r)-4-((3R)-4-(1-(6-(2,6-dioxopiperidin-3-yl)-2-methylpyridin-3-yl)piperidin-4-yl)-3-(methoxymethyl)piperazin-1-yl)cyclohexyl)-6-(2-hydroxypropan-2-yl)-2H-indazol-5-yl)pyrrolo[1,2-b]pyridazine-7-carboxamide]: the DC50 on IRAK4 [1] amounted to 5.2 nM; at IRAK4 [2] it was 2.1 nM. Further, the Dmax at IRAK4 [1] and on IRAK4 [2] (setting [3]) was 97% in each case.

As for `COC[C@@H]1CN(C2CCN(c3ccc(C4CCC(=O)NC4=O)nc3C)CC2)CCN1[C@H]1CC[C@H](n2cc3cc(NC(=O)c4ccc5cc(C#N)cnn45)c(C(C)(C)O)cc3n2)CC1` (stereo partly drawn) [Example 423, 3-cyano-N-(2-((1S,4r)-4-((2S)-4-(1-(6-(2,6-dioxopiperidin-3-yl)-2-methylpyridin-3-yl)piperidin-4-yl)-2-(methoxymethyl)piperazin-1-yl)cyclohexyl)-6-(2-hydroxypropan-2-yl)-2H-indazol-5-yl)pyrrolo[1,2-b]pyridazine-7-carboxamide], the values for the 50% degradation concentration (DC50) on IRAK4 [1] and at IRAK4 [2] were 3 nM and 1.1 nM, respectively. The greatest degradation seen (Dmax) was 96% on IRAK4 [1] and 98% on IRAK4 [2] (setting [3]).

As to `CC(=O)c1cc2nn([C@H]3CC[C@H](N4CCN(C5CN(c6cc(F)c([C@H]7CCC(=O)NC7=O)c(F)c6)C5)CC4)CC3)cc2cc1NC(=O)c1ccc2cc(C#N)cnn12` [Example 425, N-(6-acetyl-2-((1R,4r)-4-(4-(1-(4-((R)-2,6-dioxopiperidin-3-yl)-3,5-difluorophenyl)azetidin-3-yl)piperazin-1-yl)cyclohexyl)-2H-indazol-5-yl)-3-cyanopyrrolo[1,2-b]pyridazine-7-carboxamide], the 50% degradation concentration (DC50) at IRAK4 [1] is 19 nM; at IRAK4 [2], 0.6 nM. Moreover, the Dmax on IRAK4 [1] was found to be 94%; at IRAK4 [2] (setting [3]) it was 98%.

For `Cc1nc(C2CCC(=O)NC2=O)ccc1N1CC(N2CCN(C3CCC(n4cc5cc(NC(=O)c6ccc7cc(C#N)cnn67)c(C(C)(C)O)cc5n4)CC3)CC2)C1` (stereo not shown) [Example 426, 3-cyano-N-(2-((1r,4r)-4-(4-(1-(6-(2,6-dioxopiperidin-3-yl)-2-methylpyridin-3-yl)azetidin-3-yl)piperazin-1-yl)cyclohexyl)-6-(2-hydroxypropan-2-yl)-2H-indazol-5-yl)pyrrolo[1,2-b]pyridazine-7-carboxamide], on IRAK4 [1], the “IRAK4 degradtion with human serum assay Dmax (%)” value is on record as 95% and the 50% degradation concentration (DC50) amounted to 12 nM. For the same compound, the “IRAK4 in Karpas-299 (24 h) Dmax (%)” value on IRAK4 [2] (setting [3]) was 95%. In addition, the DC50 at IRAK4 [2] was 5.5 nM.

With `Cc1nc(C2CCC(=O)NC2=O)ccc1N1CCC(N2CCC3(CCC(n4cc5cc(NC(=O)c6ccc7cc(C#N)cnn67)c(C(C)(C)O)cc5n4)CC3)CC2)CC1` (stereo not shown) [Example 427, 3-cyano-N-(2-(3-(1-(6-(2,6-dioxopiperidin-3-yl)-2-methylpyridin-3-yl)piperidin-4-yl)-3-azaspiro[5.5]undecan-9-yl)-6-(2-hydroxypropan-2-yl)-2H-indazol-5-yl)pyrrolo[1,2-b]pyridazine-7-carboxamide], the values for the 50% degradation concentration (DC50) on IRAK4 [1] and at IRAK4 [2] were 8.4 nM and 2.9 nM, respectively. The Dmax on IRAK4 [1] is 94%; on IRAK4 [2] (setting [3]), 96%.

For the compound `CC(C)(O)c1cc2nn(C3CCC4(CC3)CCN(C3CN(c5cc(F)c([C@H]6CCC(=O)NC6=O)c(F)c5)C3)CC4)cc2cc1NC(=O)c1ccc2cc(C#N)cnn12` [Example 428, (R)-3-cyano-N-(2-(3-(1-(4-(2,6-dioxopiperidin-3-yl)-3,5-difluorophenyl)azetidin-3-yl)-3-azaspiro[5.5]undecan-9-yl)-6-(2-hydroxypropan-2-yl)-2H-indazol-5-yl)pyrrolo[1,2-b]pyridazine-7-carboxamide], the values for the DC50 at IRAK4 [1] and at IRAK4 [2] were 33 nM and 2.9 nM, respectively. Besides, the Dmax at IRAK4 [1] stood at 94%; at IRAK4 [2] (setting [3]), 93%.

Broadly, the DC50 is the midpoint of the concentration-degradation curve. What is called Dmax is the greatest extent of degradation seen.
